Test results taken from paper PMC6331893, “Autodisplay of Human Hyaluronidase Hyal-1 on Escherichia coli and Identification of Plant-Derived Enzyme Inhibitors” (Molecules, 2015).
Like-named read-outs stand apart in the source and are kept apart here.

Target: T1, human hyaluronidase Hyal-1 (Homo sapiens, UniProt Q12794)
T1 construct: gene HYAL1
T1 sequence (Q12794 22-435): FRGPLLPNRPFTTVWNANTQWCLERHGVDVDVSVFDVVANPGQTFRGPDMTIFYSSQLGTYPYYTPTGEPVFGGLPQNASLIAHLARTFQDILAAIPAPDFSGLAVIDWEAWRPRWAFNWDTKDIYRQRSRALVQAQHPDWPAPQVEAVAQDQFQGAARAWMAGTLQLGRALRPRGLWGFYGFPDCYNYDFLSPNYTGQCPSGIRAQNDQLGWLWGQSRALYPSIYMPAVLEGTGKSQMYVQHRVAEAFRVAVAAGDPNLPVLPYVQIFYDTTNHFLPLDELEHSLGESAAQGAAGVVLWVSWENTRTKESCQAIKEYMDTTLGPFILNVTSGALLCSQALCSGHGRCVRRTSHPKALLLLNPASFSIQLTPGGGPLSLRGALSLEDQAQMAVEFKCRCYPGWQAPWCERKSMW
Experiment: whole-cell "stains-all" hyaluronidase activity assay with surface-displayed Hyal-1, dose-response
Type: cell-based

Compound | IC50 [µM] | IC50 (read-out: IC50 Value) [µM]
CC1(C)[C@@H](O[C@H]2O[C@H](C(=O)O)[C@@H](O)[C@H](O)[C@H]2O[C@@H]2O[C@H](C(=O)O)[C@@H](O)[C@H](O)[C@H]2O)CC[C@]2(C)[C@H]3C(=O)C=C4[C@@H]5C[C@@](C)(C(=O)O)CC[C@]5(C)CC[C@@]4(C)[C@]3(C)CC[C@@H]12 [glycyrrhizic acid] | 177 | 
C[C@@H]1O[C@@H](O[C@H]2[C@H](OC(=O)[C@]34CCC(C)(C)C[C@H]3C3=CC[C@@H]5[C@@]6(C)CC[C@H](O[C@H]7O[C@H](C(=O)O)[C@@H](O)[C@H](O[C@@H]8OC[C@@H](O)[C@H](O)[C@H]8O)[C@H]7O[C@@H]7O[C@H](CO)[C@H](O)[C@H](O)[C@H]7O)[C@@](C)(C=O)[C@@H]6CC[C@@]5(C)[C@]3(C)CC4)O[C@H](C)[C@H](O[C@@H]3O[C@H](C)[C@@H](O)[C@H](O)[C@H]3O)[C@@H]2O)[C@H](O)[C@H](O)[C@H]1O[C@@H]1OC[C@@H](O)[C@H](O[C@@H]2OC[C@@H](O)[C@H](O)[C@H]2O)[C@H]1O [SA1641] |  | 296
gypsophila saponin 2 |  | 108
